The results in this text go back to ChEMBL document CHEMBL1145574, “Carbonic anhydrase inhibitors: Inhibition of the new membrane-associated isoform XV with phenols” (Bioorg Med Chem Lett, 2008).

One assay deals with Carbonic anhydrase 1 (Homo sapiens, UniProt P00915).
The target of a further assay is T1, Carbonic anhydrase 15 (Mus musculus, UniProt Q99N23).
T1 sequence (Q99N23 whole entry): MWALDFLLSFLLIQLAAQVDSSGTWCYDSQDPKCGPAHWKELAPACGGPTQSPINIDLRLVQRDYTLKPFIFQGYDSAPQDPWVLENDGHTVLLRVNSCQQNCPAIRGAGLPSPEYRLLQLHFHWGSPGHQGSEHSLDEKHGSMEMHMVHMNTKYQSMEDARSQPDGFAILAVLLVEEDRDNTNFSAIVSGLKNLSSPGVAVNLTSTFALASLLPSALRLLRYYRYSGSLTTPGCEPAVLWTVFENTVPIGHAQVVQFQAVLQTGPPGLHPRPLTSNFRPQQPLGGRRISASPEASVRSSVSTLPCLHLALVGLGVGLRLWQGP

The target in a further assay is Carbonic anhydrase 2 (Homo sapiens, UniProt P00918).

Sequence of Carbonic anhydrase 1 (P00915 whole entry): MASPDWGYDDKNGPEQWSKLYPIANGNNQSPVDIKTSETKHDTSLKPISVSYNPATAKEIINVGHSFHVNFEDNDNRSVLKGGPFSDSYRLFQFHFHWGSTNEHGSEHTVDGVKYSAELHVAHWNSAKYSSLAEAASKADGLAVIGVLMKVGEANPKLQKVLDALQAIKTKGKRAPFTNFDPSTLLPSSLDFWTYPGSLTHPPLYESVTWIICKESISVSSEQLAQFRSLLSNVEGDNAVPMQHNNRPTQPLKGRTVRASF
Description for Carbonic anhydrase 15: Inhibition of mouse recombinant carbonic anhydrase 15 by stopped-flow CO2 hydrase assay
Description for Carbonic anhydrase 2: Inhibition of human carbonic anhydrase 2 by stopped-flow CO2 hydrase assay

As usually defined, the Ki is a dissociation constant, usually derived from enzyme kinetics or from competition with a known ligand. Lower therefore signals tighter binding. Consider `N#Cc1ccc(O)cc1` [4-CYANOPHENOL], for which the Ki came to 131 µM at Carbonic anhydrase 1 and 434 µM on Carbonic anhydrase 15.

With `Nc1ccc(O)cc1` [4-AMINOPHENOL], the Ki on Carbonic anhydrase 15 is 335 µM. Consider `Oc1cccc(O)c1` [RESORCINOL], for which the Ki at Carbonic anhydrase 1 was found to be 795 µM; on Carbonic anhydrase 15 it was 385 µM.

For `Oc1ccccc1O` [CATECHOL], the inhibitory constant (Ki) amounted to 9.91 µM at Carbonic anhydrase 2, 4000 µM at Carbonic anhydrase 1 and 10.2 µM at Carbonic anhydrase 15. Turning to `O=C(O)c1ccc(O)cc1` [PARABEN], the values for the inhibitory constant (Ki) on Carbonic anhydrase 1 and at Carbonic anhydrase 15 were 9.8 µM and 9.32 µM, respectively. Turning to `Oc1ccc(O)cc1` [HYDROQUINONE], the figures for the Ki at Carbonic anhydrase 1 and on Carbonic anhydrase 15 were 10.7 µM and 10.6 µM, respectively. `Oc1cc(F)ccc1F`: the Ki at Carbonic anhydrase 2 turned out to be 870 µM; on Carbonic anhydrase 1 it was 134 µM; on Carbonic anhydrase 15 it was 212 µM. Consider `Oc1cc(F)cc(F)c1`, for which the affinity on Carbonic anhydrase 15 corresponds to a Ki of 11.3 µM.

In the case of `Oc1ccccc1` [PHENOL], the Ki on Carbonic anhydrase 15 was 10.5 µM. For `Oc1c(I)cc(Cl)c2cccnc12` [CLIOQUINOL], the affinity on Carbonic anhydrase 15 corresponds to a Ki of 2.33 µM. This Ki lies about 4.5-fold lower than the previous one. In the case of `CC(=O)Nc1ccc(O)cc1` [ACETAMINOPHEN], the Ki at Carbonic anhydrase 2 amounted to 6.2 µM; on Carbonic anhydrase 1, 10 µM; at Carbonic anhydrase 15, 9.23 µM.
